Test results: ChEMBL document CHEMBL1132927, “New proline mimetics: synthesis of thrombin inhibitors incorporating cyclopentane- and cyclopentenedicarboxylic acid templates in the P2 position. Binding conformation investigated by X-ray crystallography” (J Med Chem, 2000)

The compounds below were run against Prothrombin (Homo sapiens, UniProt P00734) (assay: In vitro for the inhibition of thrombin).

Structure (SMILES)	IC50 [µM]
N=C(N)c1ccc(CNC(=O)[C@H]2CCC[C@@H]2C(=O)NCc2ccccc2)cc1	> 132
N=C(N)c1ccc(CNC(=O)[C@@H]2CCC=C2C(=O)N2CCCCC2)cc1	6.03
N=C(N)c1ccc(CNC(=O)[C@@H]2CCC[C@H]2C(=O)N[C@@H](C(=O)O)c2ccccc2)cc1	> 132
N=C(N)c1ccc(CNC(=O)[C@@H]2CCC[C@H]2C(=O)NCc2ccccc2)cc1	44.7
COC(=O)[C@H](NC(=O)[C@@H]1CCC[C@H]1C(=O)NCc1ccc(C(=N)N)cc1)c1ccccc1	20.4
N=C(N)c1ccc(CNC(=O)[C@@H]2CCC=C2C(=O)NCC2CCCCC2)cc1	9.33

The next compounds have a lower IC50 than those just listed; values first:

IC50 [µM]	Structure (SMILES)
1.51	N=C(N)c1ccc(CNC(=O)[C@@H]2CCC=C2C(=O)NC2CCCCC2)cc1
1.32	N=C(N)c1ccc(CNC(=O)[C@@H]2CCC[C@H]2C(=O)NC2CCCCC2)cc1
0.98	CCN(C(=O)C1=CCC[C@H]1C(=O)NCc1ccc(C(=N)N)cc1)c1ccccc1
0.87	CCON(C(=O)C1=CCC[C@H]1C(=O)NCc1ccc(C(=N)N)cc1)C1CCCCC1
